Assay results reported in patent publication US7138428B2, “Compounds isolated from gamboge resin having activity in inhibiting the growth of tumor/cancer cells and pharmaceutical compositions comprising the same” (Taiwan Sunpan Biotechnology Development Company, Ltd., priority 2004, dated 2006).

Tests used:
tumor/cancer cells = assay: in vitro anti-cancer tests, overall statements; format: cell-based, human; conditions: summary of in vitro results
A549 (lung cancer) = assay: cells; conditions: for IC50 (50% cell growth inhibition concentration) / LC50 (50% cell destroying lethal concentration): A549
Excerpt: (§1) The cancer cell growth inhibition test was primarily used to detect the effect of a candidate drug on cancer cell proliferation. The working principle involved therein is the ability of viable cells to shift alamarBlue (Biosource, USA) from its originally non-fluorescent oxidized state to a reduced form (fluorescent, red) having fluorescence via metabolic reaction. According to the fluorescent data result generated by the alamarBlue reagent thus obtained, the proliferation of the viable cells and cell activity can be quantified for detection.
(§2) In this experiment, the assay concentrations of the candidate drug were set to be 0.01, 0.1, 1, 10, and 100 μg/ml, and the following cell lines were used: 6 human cancer cells MCF-7 (breast cancer), HT-29 (colon cancer), HL-60 (leukemia), HepG2 (liver cancer), A549 (lung cancer), and U937 (lymphoma cancer), and a normal human umbilical venal epithelial cell (HUVEC).
(§3) In order to further understand the bioactivity of the products TSB-0 to TSB-8 of this invention when they are used in combination, mixture formulations TSB-9, TSB-10, TSB-11, TSB-12 and TSB-13 were prepared according to Table 4 below.

HL-60 (leukemia) = assay: cells; conditions: for IC50 (50% cell growth inhibition concentration) / LC50 (50% cell destroying lethal concentration): HL-60
Excerpt: as §1, §2, §3

HT-29 (colon cancer) = assay: cells; conditions: for IC50 (50% cell growth inhibition concentration) / LC50 (50% cell destroying lethal concentration): HT-29
Excerpt: as §1, §2, §3

HepG2 (liver cancer) = assay: cells; conditions: for IC50 (50% cell growth inhibition concentration) / LC50 (50% cell destroying lethal concentration): HepG2
Excerpt: as §1, §2, §3

MCF-7 (breast cancer) = assay: cells; conditions: for IC50 (50% cell growth inhibition concentration) / LC50 (50% cell destroying lethal concentration): MCF-7
Excerpt: as §1, §2, §3

U937 (lymphoma cancer) = assay: cells; conditions: for IC50 (50% cell growth inhibition concentration) / LC50 (50% cell destroying lethal concentration): U937
Excerpt: as §1, §2, §3

[1] = tested on: normal human umbilical venal epithelial cell (HUVEC)
Excerpt: as §1, §2, §3

[2] = body weights of tumor-bearing test animals; format: in vivo, mice; conditions: 2 mg/kg × 5
Description: Mixture formulation TSB-9 was further subjected to an animal test, in which female mice (6–8 weeks old, weighing 20–22 grams) originally from C.B-17/Icr background and having Severe Combined Immune Deficiency (SCID) were used.
Human breast cancer cells MCF-7 (ATCC HTB-22) (1×10^7 cells/0.2 ml) were implanted subcutaneously into the dorsal side of the mice, and 50 μg/mouse of estradiol benzoate (Sigma, USA) was injected subcutaneously into the mice weekly as supplement for a total of 4 weeks. When the tumor growth reached ≧5 mm in diameter (that very day was denoted as day 1), tumor-bearing nude mice were randomly divided into 4 groups (6 mice in each group).
Mixture formulation TSB-9 was dissolved in 10% DMSO, and was administered orally to the mice every day at two dosages 40 mg/kg and 80 mg/kg, respectively, for a total of 21 consecutive days. […] This treatment group served as a positive control.
Measurements were taken once every 4 days during the experiment periods, and were recorded.

Row | Compound | IC50 (50% cell growth inhibition concentration) (A549 (lung cancer)) [µg/mL] | LC50 (50% cell destroying lethal concentration) (A549 (lung cancer)) [µg/mL] | IC50 (50% cell growth inhibition concentration) (HL-60 (leukemia)) [µg/mL] | LC50 (50% cell destroying lethal concentration) (HL-60 (leukemia)) [µg/mL] | IC50 (50% cell growth inhibition concentration) (HT-29 (colon cancer)) [µg/mL] | LC50 (50% cell destroying lethal concentration) (HT-29 (colon cancer)) [µg/mL] | IC50 (50% cell growth inhibition concentration) (HepG2 (liver cancer)) [µg/mL] | LC50 (50% cell destroying lethal concentration) (HepG2 (liver cancer)) [µg/mL] | IC50 (50% cell growth inhibition concentration) (MCF-7 (breast cancer)) [µg/mL] | LC50 (50% cell destroying lethal concentration) (MCF-7 (breast cancer)) [µg/mL] | IC50 (50% cell growth inhibition concentration) (U937 (lymphoma cancer)) [µg/mL] | LC50 (50% cell destroying lethal concentration) (U937 (lymphoma cancer)) [µg/mL] | IC50 (50% cell growth inhibition concentration) [1] [µg/mL] | LC50 (50% cell destroying lethal concentration) [1] [µg/mL] | also measured
1 | C=C(C)[C@@H]1CC[C@]2(CO)CC[C@]3(C)[C@H](CC[C@@H]4[C@@]5(C)CC[C@H](O)C(C)(C)[C@@H]5CC[C@]43C)[C@@H]12 [TSB-0, betulin] | – | – | – | – | – | – | – | – | – | – | – | – | – | – | effect of inhibiting tumor/cancer cell growth (in words) (tumor/cancer cells): may not be as effective as products TSB-2 to TSB-8
2 | C=C(C)[C@@H]1CC[C@]2(C(=O)O)CC[C@]3(C)[C@H](CC[C@@H]4[C@@]5(C)CC[C@H](O)C(C)(C)[C@@H]5CC[C@]43C)[C@@H]12 [TSB-1, betulinic acid] | – | – | – | – | – | – | – | – | – | – | – | – | – | – | effect of inhibiting tumor/cancer cell growth (in words) (tumor/cancer cells): may not be as effective as products TSB-2 to TSB-8
3 | CC(C)=CCc1c2c(c(O)c3c1OC14C(=CC5CC1C(C)(C)OC4(C/C=C(\C)C(=O)O)C5=O)C3=O)C=CC(C)(C)O2 (centres unmarked) [TSB-2, isomorellic acid] | 1.3 | 4.6 | 2.3 | 43 | 6.9 | 12 | 6.4 | 33 | 9.0 | 24 | 1.6 | 6.1 | 1.7 | 22 | –
4 | CC(C)=CCC[C@]1(C)C=Cc2c(O)c3c(c(CC=C(C)C)c2O1)O[C@]12C(=C[C@@H]4C[C@H]1C(C)(C)O[C@@]2(C/C=C(\C)C(=O)O)C4=O)C3=O [TSB-3, isogambogic acid] | 0.88 | 4.8 | 0.97 | 4.6 | 6.4 | 8.8 | 1.2 | 1.9 | 1.6 | 4.3 | 0.82 | 3.1 | 1.1 | 5.2 | –
5 | CC(C)=CCc1c(O)cc(O)c2c(=O)c3cc4c(c(O)c3oc12)OC(C)(C)C=C4 [TSB-4, 7,9,12-trihydroxy-2,2-dimethyl-10-(3-methyl-but-2-enyl)-2H-pyrano[3,2-b]xanthen-6-one] | – | – | – | – | – | – | – | – | – | – | – | – | – | 21 | CC50 (A549 (lung cancer); Homo sapiens, A549, read-out: LC50 (50% cell destroying lethal concentration)): 21 µg/mL; CC50 (HL-60 (leukemia); Homo sapiens, HL-60, read-out: LC50 (50% cell destroying lethal concentration)): 42 µg/mL; CC50 (HT-29 (colon cancer); Homo sapiens, HT-29, read-out: LC50 (50% cell destroying lethal concentration)): 59 µg/mL; CC50 (HepG2 (liver cancer); Homo sapiens, HepG2, read-out: LC50 (50% cell destroying lethal concentration)): 24 µg/mL; CC50 (MCF-7 (breast cancer); Homo sapiens, MCF7, read-out: LC50 (50% cell destroying lethal concentration)): 40 µg/mL; CC50 (U937 (lymphoma cancer); Homo sapiens, U-937, read-out: LC50 (50% cell destroying lethal concentration)): 28 µg/mL
6 | CC(C)=CCC[C@]1(C)C=Cc2c(O)c3c(c(CC=C(C)C)c2O1)O[C@]12C(=C[C@@H]4C[C@H]1C(C)(C)O[C@@]2(C/C=C(/C)C(=O)O)C4=O)C3=O [TSB-5, gambogic acid] | 0.8 | 2.9 | 0.50 | 5.2 | 4.5 | 7.1 | 0.83 | 2.7 | 0.83 | 2.7 | 0.65 | 3.1 | 0.87 | 3.6 | –
7 | CC(C)=CCc1c2c(c(O)c3c1OC14C(=CC5CC1C(C)(C)OC4(C/C=C(\C)CO)C5=O)C3=O)C=CC(C)(C)O2 (centres unmarked) [TSB-6, isomorellinol] | 2.0 | 9.6 | 1.4 | 6.2 | 5.2 | 8.5 | 1.2 | 3.0 | 0.90 | 5.8 | 1.3 | 3.8 | 1.5 | 9.3 | –
8 | CC(C)=CCc1c2c(c(O)c3c1O[C@]14C(=C[C@@H]5C[C@H]1C(C)(C)O[C@@]4(C/C=C(/C)C(=O)O)C5=O)C3=O)C=CC(C)(C)O2 [TSB-7, morellic acid] | 0.76 | 3.4 | 1.2 | 5.6 | 2.8 | 7.2 | 1.7 | 3.9 | 0.98 | 6.2 | 1.6 | 4.8 | 0.88 | 4.8 | –
9 | CC(C)=CCc1c2c(c(O)c3c1O[C@@]14C(=C[C@H]5CC1C(C)(C)O[C@]4(CC=C(C)C)C5=O)C3=O)C=CC(C)(C)O2 [TSB-8, desoxymorellin] | 4.8 | 56 | 6.5 | >100 | 6.7 | 69 | 3.9 | 31 | 5.3 | 83 | 6.2 | >100 | 2.8 | 40 | –
10 | CO[C@@]12[C@H](COC(N)=O)C3=C(C(=O)C(C)=C(N)C3=O)N1C[C@@H]1N[C@@H]12 [mitomycin] | – | – | – | – | – | – | – | – | – | – | – | – | – | – | Weight (g) (mean ± SEM) ([2]; Day 1): 22.5 ± 0.6 g; Weight (g) (mean ± SEM) ([2]; Day 5): 20.8 ± 0.3 g; Weight (g) (mean ± SEM) ([2]; Day 9): 19.3 ± 0.4 g; Weight (g) (mean ± SEM) ([2]; Day 13): 19.2 ± 0.3 g; Weight (g) (mean ± SEM) ([2]; Day 17): 18.5 ± 0.2 g; Weight (g) (mean ± SEM) ([2]; Day 21): 17.5 ± 0.2 g; Weight (g) (mean ± SEM) ([2]; Day 25): 16.7 ± 0.2 g; Weight (g) (mean ± SEM) ([2]; Day 29): 16.7 ± 0.4 g
